Consider 16 compounds from publication PMC6691884 (Journal of Enzyme Inhibition and Medicinal Chemistry, 2019).

One test deals with T1, FtuCA (Francisella tularensis, UniProt Q5NH77).
T1 construct: gene cynT
The settings on record: activation constant (not association constant); activator; CO2 substrate; 10 mM Tris pH 8.4, 0.1 M Na2SO4, 25 °C; 15 min pre-incubation.

The target in the next test is T2, BsuCA 1 (Brucella suis, UniProt A0A0H3GDA4).
T2 construct: gene BS1330_I1823
The settings on record: activation constant (not association constant); activator; CO2 substrate; 10 mM Tris pH 8.4, 0.1 M Na2SO4, 25 °C; 15 min pre-incubation.

T1 sequence (Q5NH77 1-228): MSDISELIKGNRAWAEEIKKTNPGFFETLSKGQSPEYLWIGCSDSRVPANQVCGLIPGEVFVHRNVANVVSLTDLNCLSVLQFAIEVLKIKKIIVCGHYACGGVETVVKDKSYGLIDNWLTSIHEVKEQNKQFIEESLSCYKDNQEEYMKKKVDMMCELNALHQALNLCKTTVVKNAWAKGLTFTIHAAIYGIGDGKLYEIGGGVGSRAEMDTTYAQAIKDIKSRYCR
T2 sequence (A0A0H3GDA4 1-213): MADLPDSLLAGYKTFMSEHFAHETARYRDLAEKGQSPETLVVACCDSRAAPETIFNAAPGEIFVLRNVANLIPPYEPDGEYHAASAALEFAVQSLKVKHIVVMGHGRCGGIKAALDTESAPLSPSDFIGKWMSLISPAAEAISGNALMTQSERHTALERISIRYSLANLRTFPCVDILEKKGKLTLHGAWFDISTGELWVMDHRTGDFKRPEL

For `NCCN1CCNCC1` [compound 17, 1-(2-Aminoethyl)-piperazine], on FtuCA, the “KA (μM)^a / FtuCA^c” value worked out at 51.8 µM. Regarding `N[C@H](Cc1c[nH]c2ccccc12)C(=O)O` [compound 8, D-Trp], the “KA (μM)^a / FtuCA^c” value on FtuCA stood at 30.5 µM. As for `N[C@@H](Cc1ccc(O)c(O)c1)C(=O)O` [compound 5, L-DOPA], at BsuCA 1, the “KA (μM)^a / BsuCA1 ^c” value worked out at 2.07 µM. The same measure, in the same setting: to `N[C@H](Cc1ccccc1)C(=O)O` [compound 4, D-Phe] belongs 1.21 µM; to `NCCc1ccc(O)c(O)c1` [compound 13, Dopamine], 1.54 µM.

`N[C@@H](Cc1cnc[nH]1)C(=O)O` [compound 1, L-His]: the “KA (μM)^a / FtuCA^c” value on FtuCA was found to be 40.7 µM. In addition, on BsuCA 1, the “KA (μM)^a / BsuCA1 ^c” value is 1.76 µM. In the case of `N[C@H](CCC(=O)O)C(=O)O` [compound 23, D-Glu], the “KA (μM)^a / BsuCA1 ^c” value at BsuCA 1 was 1.39 µM. With `CNC[C@H](O)c1ccc(O)c(O)c1` [compound 19, L-Adrenaline], the “KA (μM)^a / BsuCA1 ^c” value at BsuCA 1 turned out to be 0.70 µM. For the compound `Nc1ccc(C[C@H](N)C(=O)O)cc1` [compound 11, 4-H2N-L-Phe], the “KA (μM)^a / BsuCA1 ^c” value at BsuCA 1 was found to be 1.18 µM. For the compound `N[C@@H](Cc1c[nH]c2ccccc12)C(=O)O` [compound 7, L-Trp], on FtuCA, the “KA (μM)^a / FtuCA^c” value worked out at 34.1 µM. Besides, at BsuCA 1, the “KA (μM)^a / BsuCA1 ^c” value was 1.25 µM. Take `N[C@H](Cc1ccc(O)cc1)C(=O)O` [compound 10, D-Tyr]: at BsuCA 1, the “KA (μM)^a / BsuCA1 ^c” value was found to be 0.95 µM. In the case of `NC(=O)CC[C@H](N)C(=O)O` [compound 24, L-Gln], the “KA (μM)^a / FtuCA^c” value on FtuCA came out at 45.7 µM.

With `NCc1ccccn1` [compound 15, 2-Pyridyl-methylamine], at FtuCA, the “KA (μM)^a / FtuCA^c” value was determined as 46.3 µM. For the same compound, the “KA (μM)^a / BsuCA1 ^c” value at BsuCA 1 was found to be 1.62 µM. Take `N[C@H](Cc1ccc(O)c(O)c1)C(=O)O` [compound 6, D-DOPA]: on FtuCA, the “KA (μM)^a / FtuCA^c” value was determined as 44.8 µM. In the case of `N[C@@H](CCC(=O)O)C(=O)O` [compound 22, L-Glu], at FtuCA, the “KA (μM)^a / FtuCA^c” value came to 9.13 µM.

For the compound `N[C@@H](Cc1ccc(O)cc1)C(=O)O` [compound 9, L-Tyr], the “KA (μM)^a / BsuCA1 ^c” value at BsuCA 1 was 1.38 µM.
